Test results: patent US4761404A, “Phospholipid analogs useful as PAF synthesis inhibitors” (Merck & Co., Inc., priority 1985, dated 1988)

Assays:
PAF biosynthesis = PAF biosynthesis inhibition (rat spleen microsomes, [3H]acetyl CoA / lyso PAF); assay type: biochemical; details: 10 μM, incubation 5-8 minutes
Protocol: (1) Product PAF was estimated after reaction by liquid scintillation counting of the dried chloroform phase.
(2) [^3 H]Acetyl Co A was used in place of [^14 C],
(3) Incubation (i.e., reaction) times were generally within the range of 5-8 minutes.
(4) Concentrations used were in 1 ml of reaction mixture as follows:
Rat spleen microisomes: 50-150 μg

rabbit platlets = experiment: aggregation of rabbit platelets (AC50); assay type: cell-based; details: Oryctolagus cuniculus, Platelet, 50% aggregation, only compounds structurally similar to PAF, read-out: AC50 (concentration of the test compound to obtain 50% aggregation of rabbit platlets)
Excerpt: The results obtained and the compounds tested are set forth in Table I below wherein "% I" represents percent inhibition and "AC50 " represents the concentration of the test compound to obtain 50% aggregation of rabbit platlets. The AC50 results were obtained only for those compounds which are structurally similar to PAF.

3-Hexadecylsulfonaminopropyl-1-phosphorylcholine [Example 51]
% I (percent inhibition), PAF biosynthesis inhibition (PAF biosynthesis): 34%

3-Octadecylaminocarbonylaminopropyl-1-phosphorylcholine [Example 52]
% I (percent inhibition), PAF biosynthesis inhibition (PAF biosynthesis): 74%

3-Tetradecycloxycarbonylaminopropyl-2-phosphorylcholine [Example 50]
% I (percent inhibition), PAF biosynthesis inhibition (PAF biosynthesis): 65%

CCCCCCCCCCCCCCCCOCC(C)(O)COP(=O)([O-])OCC[N+](C)(C)C (stereo not drawn) [Example 12, 3-O-Hexadecyl-2-methylglycero-1-phosphorylcholine]
AC50 (rabbit platlets): > 100 µM

C=C(COCCCCCCCCCCCCCCCC)COP(=O)([O-])OCC[N+](C)(C)C [Example 13, 2-Hexadecyloxymethyl-2-propene-1-phosphorylcholine]
AC50 (rabbit platlets): 1.3 µM
% I (percent inhibition), PAF biosynthesis inhibition (PAF biosynthesis): 38%

CCCCCCCCCCCCCCCCOCC(COC(C)=O)COP(=O)([O-])OCC[N+](C)(C)C (stereo not drawn) [Example 14, 2-Acetoxymethyl-2-deoxy-3-O-hexadecylglycero-1-phosphocholine]
AC50 (rabbit platlets): 0.34 µM
% I (percent inhibition), PAF biosynthesis inhibition (PAF biosynthesis): 36%

CCCCCCCCCCCCCCCCOCC(O)(COC(C)=O)COP(=O)([O-])OCC[N+](C)(C)C (stereo not drawn) [Example 15, 2-Acetoxymethyl-3-O-hexadecylglycero-1-phosphocholine]
AC50 (rabbit platlets): 0.07 µM
% I (percent inhibition), PAF biosynthesis inhibition (PAF biosynthesis): 71%

CCCCCCCCCCCCCCCCOCC(CF)COP(=O)([O-])OCC[N+](C)(C)C (stereo not drawn) [Example 16, 2-Deoxy-2-fluoromethyl-3-0-hexadecylglycero-1-phosphocholine]
AC50 (rabbit platlets): 2.2 µM
% I (percent inhibition), PAF biosynthesis inhibition (PAF biosynthesis): 30%

CCCCCCCCCCCCCCCCOCC(CO)COP(=O)([O-])OCC[N+](C)(C)C (stereo not drawn) [Example 17, 2-Hydroxymethyl-2-deoxy-3-O-hexadecylglycero-1-phosphocholine]
AC50 (rabbit platlets): 24 µM
% I (percent inhibition), PAF biosynthesis inhibition (PAF biosynthesis): 20%

CCCCCCCCCCCCCCCCOCC(O)(CO)COP(=O)([O-])OCC[N+](C)(C)C (stereo not drawn) [Example 18, 2-Hydroxymethyl-3-O-hexadecylglycero-1-phosphocholine]
AC50 (rabbit platlets): 38 µM
% I (percent inhibition), PAF biosynthesis inhibition (PAF biosynthesis): 82%

Sodium 2-(2-N-hexadecanoylaminoethyl)-2'-(2 -methylcarbonylaminoethyl)phosphate [Example 46]
% I (percent inhibition), PAF biosynthesis inhibition (PAF biosynthesis): 90%

Sodium 2-(2-N-hexadecanoylaminoethyl)-2'-(2-methylsulfinylethyl)phosphate [Example 53]
% I (percent inhibition), PAF biosynthesis inhibition (PAF biosynthesis): 71%
